Laboratory results published in patent US11077145B2, “Method for mass producing proteins in mesenchymal stem cells” (STEMMEDICARE CO., LTD., priority 2015, dated 2021).
Several values for one entry are separate records, joined by “and”; a condition that tells them apart may be missing. Identical values can stand only once. Marks after values point to notes of the source that are not given here.

Tests used:
[1] = tested on: C57BL/6 mice; assay: Hair growth suppression model (dexamethasone), hair growth score and number of hair follicles; format: in vivo, mouse; set-up: hair growth score, Average: scale not given here
Protocol: A comparative test was performed to examine the hair growth effect of the mesenchymal stem cell conditioned medium of the present invention using C57BL/6 mice. After depilating the test animals, the depilatory was treated to induce them from the telogen (resting phase) to the anagen (growing phase), and then to suppress the growth of hair follicles, 0.1% of dexamethanone was transdermally administered for 5 days from 8 days after depilation repeatedly. Next, in order to compare the growth promoting effect of the test substance containing 3% of the mesenchymal stem cell conditioned medium of the present invention, the growth promoting effects were compared with the test substance by transdermally administered repeatedly of G1 (distilled water control), G2 (placebo control), G3 (test substance) and G4 (positive control-minoxidil 5%) for 8 days.

[2] = tested on: C57BL/6 mice; assay: Anagen hair model, hair growth score and number of hair follicles; format: in vivo, mouse; set-up: hair growth score, Average: scale not given here
Protocol: A comparative test was performed to investigate the effect of hair growth promotion of the mesenchymal stem cell conditioned medium of the present invention using C57BL/6 mice. After induction of the hair follicles of the test animal from the telogen (resting phase) to the […] (growing phase) and depilatione, in order to compare the growth promoting effect of the test substance containing 3% of the mesenchymal stem cell conditioned medium of the present invention, G1 (distilled water control), G2 (placebo control), G3 (test substance) and G4 (positive control-minoxidil 5%) were transdermally administered repeatedly for 14 days respectively, and the hair growth promoting effects were compared with the test substance.

[3] = individual animal average of 3 areas
[4] = individual animal, female, 8th day of administration
[5] = individual animal, histopathological examination
[6] = individual animal, female, 13th day

Which results are given for `Nc1cc(N2CCCCC2)nc(N)[n+]1[O-]` [G4, Minoxidil]?
number of hair follicles, Total Average ([1]; group average, transdermal for 8 days): 66.37; hair growth score, Total Average ([1]; group average, transdermal for 8 days, 8th day): 2.68 points; number of hair follicles, Average [1, 3]: 87.67 and 92.33 and 71.00 and 36.33 and 108.33 and 61.33 and 45.33 and 29.67 and 36.00 and 95.67; hair growth score, Average ([1]; individual animal average, 8th day of administration): 3.00 (3×) and 1.75 (2×) and 2.25 and 2.75 (2×) and 2.50 and 4.00; hair growth score, Score 1st [1, 4]: 2 (40~59% (2)) (6×) and 1 (20~39% (1)) (2×) and 3 (60~79% (3)) and 4 (80~100% (4)); hair growth score, Score 2nd [1, 4]: 2 (40~59% (2)) (7×) and 1 (20~39% (1)) (2×) and 4 (80~100% (4)); hair growth score, Score 3rd [1, 4]: 4 (80~100% (4)) (4×) and 2 (40~59% (2)) (3×) and 3 (60~79% (3)) (2×) and 1 (20~39% (1)); hair growth score, Score 4th [1, 4]: 4 (80~100% (4)) (7×) and 3 (60~79% (3)) (3×); number of hair follicles, Area 1 [1, 5]: 70 and 97 and 66 and 53 and 114 and 65 and 78 and 46 and 37 and 95; number of hair follicles, Area 2 [1, 5]: 96 and 87 (2×) and 65 and 37 (2×) and 108 and 52 and 19 and 48; number of hair follicles, Area 3 [1, 5]: 97 and 93 and 82 and 19 and 103 and 67 and 21 and 24 and 23 and 105; hair growth score, Average ([2]; 15th day, female C57BL/6 mice, average of the four scores per animal): 4 (4×) and 3.75 (3×) and 3.5 (3×); hair growth score, Total Average ([2]; 15th day, female C57BL/6 mice, group average, transdermal administration for 14 days): 3.78**; hair growth score, Score 1st ([2]; 15th day, female C57BL/6 mice, individual animal, 1st score): 4 (80~100% (4)) (9×) and 3 (60~79% (3)); hair growth score, Score 2nd ([2]; 15th day, female C57BL/6 mice, individual animal, 2nd score): 4 (80~100% (4)) (5×) and 3 (60~79% (3)) (5×); hair growth score, Score 3rd ([2]; 15th day, female C57BL/6 mice, individual animal, 3rd score): 4 (80~100% (4)); hair growth score, Score 4th ([2]; 15th day, female C57BL/6 mice, individual animal, 4th score): 4 (80~100% (4)) (7×) and 3 (60~79% (3)) (3×); hair growth score, Total Average ([2]; group average, 13th day): 3.27 point; hair growth score, Total Average ([2]; group average, 15th day): 3.78 point; number of hair follicles, Total Average ([2]; group average, transdermal for 14 days): 104.70; number of hair follicles, Average [2, 3]: 191.33 and 107.67 and 69.00 and 149.67 and 54.67 and 82.67 and 72.33 and 130.33 and 138.67 and 50.67; hair growth score, Average ([2]; individual animal average, 13th day): 3.67 (2×) and 4.00 (2×) and 3.33 (2×) and 3.00 and 2.33 and 2.67 (2×); hair growth score, Score 1st [2, 6]: 3 (60~79% (3)) (4×) and 4 (80~100% (4)) (2×) and 2 (40~59% (2)) (4×); hair growth score, Score 2nd [2, 6]: 3 (60~79% (3)) (5×) and 4 (80~100% (4)) (2×) and 1 (20~39% (1)) (2×) and 2 (40~59% (2)); hair growth score, Score 3rd [2, 6]: 4 (80~100% (4)) (6×) and 3 (60~79% (3)) (4×); hair growth score, Score 4th [2, 6]: 4 (80~100% (4)) (5×) and 3 (60~79% (3)) (5×); number of hair follicles, Area 1 [2, 5]: 232 and 48 and 92 and 135 and 45 and 90 and 71 and 149 and 121 and 53; number of hair follicles, Area 2 [2, 5]: 209 and 135 and 55 and 155 and 50 and 94 and 79 and 126 and 164 and 41; number of hair follicles, Area 3 [2, 5]: 133 and 140 and 60 and 159 and 69 and 64 and 67 and 116 and 131 and 58
